{"source": "patent US20090142347A1", "about": "“Tissue-Nonspecific Alkaline Phosphatase (TNAP): a Therapeutic Target for Arterial Calcification” (THE BURNHAM INSTITUTE FOR MEDICAL RESEARCH, priority 2004, published 2009)", "key": {"[1]": {"target": "hTNALP A371 (Homo sapiens, UniProt P05186, Y388A)", "sequence (P05186 18-501 Y388A)": "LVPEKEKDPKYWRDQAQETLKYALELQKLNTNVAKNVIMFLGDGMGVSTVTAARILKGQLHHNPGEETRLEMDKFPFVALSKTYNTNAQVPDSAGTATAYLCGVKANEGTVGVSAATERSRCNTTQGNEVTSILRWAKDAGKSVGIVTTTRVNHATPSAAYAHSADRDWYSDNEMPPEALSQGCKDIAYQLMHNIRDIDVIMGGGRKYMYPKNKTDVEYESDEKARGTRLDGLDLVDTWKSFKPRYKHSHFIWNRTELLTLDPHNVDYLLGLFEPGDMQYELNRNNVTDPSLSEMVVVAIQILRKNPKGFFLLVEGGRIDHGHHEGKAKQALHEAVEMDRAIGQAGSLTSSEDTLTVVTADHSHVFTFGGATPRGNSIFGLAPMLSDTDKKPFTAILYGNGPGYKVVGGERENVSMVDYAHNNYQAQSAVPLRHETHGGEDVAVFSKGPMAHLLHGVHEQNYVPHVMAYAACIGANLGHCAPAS", "experiment": "biochemical"}, "[2]": {"target": "T1, hPLALP R428 (Homo sapiens, UniProt P05187, D450R)", "T1 construct": "made in house; host or cells: COS-7 (given only for the TNAP-Flag constructs)", "T1 sequence (P05187 23-506 D450R limits assumed)": "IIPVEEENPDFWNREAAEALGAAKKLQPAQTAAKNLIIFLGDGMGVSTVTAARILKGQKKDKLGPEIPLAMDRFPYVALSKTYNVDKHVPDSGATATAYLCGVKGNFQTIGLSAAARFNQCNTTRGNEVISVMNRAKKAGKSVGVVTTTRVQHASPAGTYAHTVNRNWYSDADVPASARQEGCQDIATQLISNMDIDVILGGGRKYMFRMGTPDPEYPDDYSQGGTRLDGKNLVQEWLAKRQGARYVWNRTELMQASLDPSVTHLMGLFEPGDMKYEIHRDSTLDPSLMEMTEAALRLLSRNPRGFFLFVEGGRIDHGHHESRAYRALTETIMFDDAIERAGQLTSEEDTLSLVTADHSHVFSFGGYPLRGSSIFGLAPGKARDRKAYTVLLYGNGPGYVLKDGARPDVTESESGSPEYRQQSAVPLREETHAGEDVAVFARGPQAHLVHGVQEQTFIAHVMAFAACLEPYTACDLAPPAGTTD", "experiment": "Ki of uncompetitive inhibitors (pNPP substrate)", "type": "biochemical", "conditions": "hPLALP mutant R428; read-out: Ki for various inhibitors", "description": "(§1) In brief, samples of the enzymes were added to microtiter plates coated with M2 anti-FLAG antibody, and saturating activities with the substrate pNPP were measured in 1 M DEA/HCl buffer, pH 9.8, containing 1 mM MgCl2 and 20 .micro.M ZnCl2."}, "[3]": {"target": "T2, hPLALP (E107, G108) (Homo sapiens, UniProt P05187, F129E/Q130G)", "T2 construct": "made in house; host or cells: COS-7 (given only for the TNAP-Flag constructs)", "T2 sequence (P05187 23-506 F129E/Q130G limits assumed)": "as the sequence (P05187 23-506 D450R limits assumed) above, with F107E, Q108G, R428D counted along it", "experiment": "Ki of uncompetitive inhibitors (pNPP substrate)", "type": "biochemical", "conditions": "hPLALP mutant (E107, G108); read-out: Ki for various inhibitors", "description": "as §1"}, "[4]": {"target": "T3, hPLALP D165 (Homo sapiens, UniProt P05187, N187D)", "T3 construct": "made in house; host or cells: COS-7 (given only for the TNAP-Flag constructs)", "T3 sequence (P05187 23-506 N187D limits assumed)": "as the sequence (P05187 23-506 D450R limits assumed) above, with N165D, R428D counted along it", "experiment": "Ki of uncompetitive inhibitors (pNPP substrate)", "type": "biochemical", "conditions": "hPLALP mutant D165; read-out: Ki for various inhibitors", "description": "as §1"}, "[5]": {"target": "T4, hPLALP (G108, G429) (Homo sapiens, UniProt P05187, E451G/Q130G)", "T4 construct": "made in house; host or cells: COS-7 (given only for the TNAP-Flag constructs)", "T4 sequence (P05187 23-506 Q130G/E451G limits assumed)": "as the sequence (P05187 23-506 D450R limits assumed) above, with Q108G, R428D, E429G counted along it", "experiment": "Ki of uncompetitive inhibitors (pNPP substrate)", "type": "biochemical", "conditions": "hPLALP mutant (G108, G429); read-out: Ki for various inhibitors", "description": "as §1"}, "[6]": {"target": "T5, hPLALP (R428, H429) (Homo sapiens, UniProt P05187, D450R/E451H)", "T5 construct": "made in house; host or cells: COS-7 (given only for the TNAP-Flag constructs)", "T5 sequence (P05187 23-506 D450R/E451H limits assumed)": "as the sequence (P05187 23-506 D450R limits assumed) above, with E429H counted along it", "experiment": "Ki of uncompetitive inhibitors (pNPP substrate)", "type": "biochemical", "conditions": "hPLALP mutant (R428, H429); read-out: Ki for various inhibitors", "description": "as §1"}, "[7]": {"target": "T6, hPLALP G108 (Homo sapiens, UniProt P05187, Q130G)", "T6 construct": "made in house; host or cells: COS-7 (given only for the TNAP-Flag constructs)", "T6 sequence (P05187 23-506 Q130G limits assumed)": "as the sequence (P05187 23-506 D450R limits assumed) above, with Q108G, R428D counted along it", "experiment": "Ki of uncompetitive inhibitors (pNPP substrate)", "type": "biochemical", "conditions": "hPLALP mutant G108; read-out: Ki for various inhibitors", "description": "as §1"}, "[8]": {"target": "hTNALP Q434 (Homo sapiens, UniProt P05186, H451Q)", "sequence (P05186 18-501 H451Q)": "as the sequence (P05186 18-501 Y388A) above, with A371Y, H434Q counted along it", "experiment": "biochemical"}, "[9]": {"target": "hTNALP D433 (Homo sapiens, UniProt P05186, R450D)", "sequence (P05186 whole entry R450D)": "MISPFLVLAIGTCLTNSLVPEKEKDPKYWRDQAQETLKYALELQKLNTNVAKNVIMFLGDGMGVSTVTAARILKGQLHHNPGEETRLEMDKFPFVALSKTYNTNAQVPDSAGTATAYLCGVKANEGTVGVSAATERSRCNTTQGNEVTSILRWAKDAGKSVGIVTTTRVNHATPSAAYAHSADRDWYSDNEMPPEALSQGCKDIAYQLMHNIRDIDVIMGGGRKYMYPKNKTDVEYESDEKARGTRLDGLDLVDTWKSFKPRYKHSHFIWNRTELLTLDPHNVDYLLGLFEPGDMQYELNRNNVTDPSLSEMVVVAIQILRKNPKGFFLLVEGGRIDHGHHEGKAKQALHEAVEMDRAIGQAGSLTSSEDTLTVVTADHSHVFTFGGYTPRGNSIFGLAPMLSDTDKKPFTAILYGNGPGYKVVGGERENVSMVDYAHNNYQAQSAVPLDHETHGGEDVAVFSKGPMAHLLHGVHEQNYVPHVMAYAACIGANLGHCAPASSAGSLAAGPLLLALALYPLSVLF", "experiment": "biochemical"}, "[10]": {"target": "hTNALP (D433, E434) (Homo sapiens, UniProt P05186, H451E/R450D)", "sequence (P05186 18-501 R450D/H451E)": "as the sequence (P05186 18-501 Y388A) above, with A371Y, R433D, H434E counted along it", "experiment": "biochemical"}}}
{"smiles": "N[C@@H](Cc1ccccc1)C(=O)O", "note": "[L-Phe, L-phenylalanine]", "values": [{"measurement": "Ki", "setting": "[1]", "result": "65 ± 24", "unit": "mM"}, {"measurement": "Ki", "setting": "[2]", "result": "0.54 ± 0.05", "unit": "mM"}, {"measurement": "Ki", "setting": "[3]", "result": "23 ± 2", "unit": "mM"}, {"measurement": "Ki", "setting": "[4]", "result": "0.54 ± 0.04", "unit": "mM"}, {"measurement": "Ki", "setting": "[5]", "result": "0.49 ± 0.06", "unit": "mM"}, {"measurement": "Ki", "setting": "[6]", "result": "0.35 ± 0.04", "unit": "mM"}, {"measurement": "Ki", "setting": "[7]", "result": "2.4 ± 0.3", "unit": "mM"}, {"measurement": "Ki", "setting": "[8]", "result": "9.8 ± 1", "unit": "mM"}, {"measurement": "Ki", "setting": "[9]", "result": "23 ± 5", "unit": "mM"}]}
{"smiles": "N=C(N)NCCCC[C@H](N)C(=O)O", "note": "[L-hArg, L-homoarginine]", "values": [{"measurement": "Ki", "setting": "[1]", "result": "31 ± 3", "unit": "mM"}, {"measurement": "Ki", "setting": "[2]", "result": "36 ± 4", "unit": "mM"}, {"measurement": "Ki", "setting": "[3]", "result": "12 ± 1.6", "unit": "mM"}, {"measurement": "Ki", "setting": "[4]", "result": "59 ± 25", "unit": "mM"}, {"measurement": "Ki", "setting": "[5]", "result": "18 ± 2", "unit": "mM"}, {"measurement": "Ki", "setting": "[6]", "result": "14 ± 1", "unit": "mM"}, {"measurement": "Ki", "setting": "[7]", "result": "60 ± 9", "unit": "mM"}, {"measurement": "Ki", "setting": "[8]", "result": "2 ± 0.1", "unit": "mM"}, {"measurement": "Ki", "setting": "[10]", "result": "13 ± 1.6", "unit": "mM"}, {"measurement": "Ki", "setting": "[9]", "result": "1.5 ± 0.2", "unit": "mM"}]}
